This note sets out measurements from US4487763A, “Peptide, process for preparation thereof and use thereof” (Fujisawa Pharmaceutical Co., Ltd., priority 1979, dated 1984).

The subject of one test is E. coli 22. The experiment in a line: Protective efficacy in experimental infection in mice. The following applies: male ICR mice, survival after four days. In kind it is in vivo. The procedure: In determining the protective efficacy against experimental infections in mice, the test compound was dissolved in and diluted with sterile saline to provide prescribed concentrations of drug.
Male ICR-strain mice, aged 4 weeks were used in groups of ten mice. E. coli 22 was cultivated overnight at 37° C. on trypticase soy agar and then were suspended in a sterile saline to obtain microbial cell concentration of 9.0×10^7 CFU/ml. Mice were inoculated intraperitoneally with 0.2 ml of the suspension. Each of the test drugs was given intraperitoneally in various doses to a group of ten mice 24 hours before challenge.
Survival percent were found from the number of the surviving animals after four days of injection.

For the next test, the system named is Mice (DDY male 5-6 W). The test can be described thus: Blood stream clearance of carbon. Format: in vivo. As to conditions: carbon clearance measured 24 hours later. The procedure:
1. Carbon suspension. Rotoring drawing ink (170 mg carbon/ml.) was diluted to 1/5 of the original concentration in saline containing 1% gelatin. 2. 0.1% aqueous sodium carbonate solution. Mice (DDY male 5-6 W) were injected via the tail vein with a dose of 0.01 ml/g body weight of carbon. Blood samples were taken by means of a pointed capillary […] calibrated to hold a 50 μl and previously washed in heparin. This was plunged into the retroorbital venous sinus at the nasal angle of the eye. The samples were removed at 3 and 6 min. The blood was immediately discharged into 3.0 ml. of the sodium carbonate solution. This hemolyzed the blood and allowed the quantitation of carbon. The samples were then read in a spectrophotometer at 660 nm, the log concentration being obtained from a previously determined standard curve. The clearance value K may be determined by plotting log carbon concentration against time according to the following relationship; [formula] in which T1 and T2 represent the time in min when the sample were withdrawn and C1 and C2 represent the concentrations of carbon in the blood at the time T1 and T2, respectively. The aqueous solution of the drug as given was administered subcutaneously to mice. Twenty four hours later, blood stream clearance of carbon was measured. K value obtained with treated mice was compared with that of control mice.

Regarding “D-Lac-L-Ala-γ-D-Glu(α-OH)-(L)-[D-Lac-L-Ala-γ-D-Glu(α-OH)-(L)-mesoDAP-(D)-Gly]-(D)-mesoDAP-(L)-GlyOH [Example 13 (Step 2)]”, the “Survival (%)” value with E. coli 22 (dose 1 mg/kg intraperitoneally 24 hours before challenge) and with E. coli 22 (dose 10 mg/kg intraperitoneally 24 hours before challenge) was 100% throughout. In addition, the “K treated/K control” value with Mice (DDY male 5-6 W) (dose 1 mg/mouse subcutaneously) was 0.6; in the test with Mice (DDY male 5-6 W) (dose 100 mg/mouse subcutaneously), 1.6.
